From patent US20080299123A1, “TREATMENT OF CHEMOTHERAPY- OR RADIOTHERAPY-RESISTANT TUMORS” (Deutsches Krebsforschungszentrum Stiftung des offentlichen …, priority 2006, published 2008) come the findings set out here.

Assay type in all cases: cell-based, human
Test [1] relates to L1CAM. Put plainly: L1CAM expression in PT45-P1res cells (western blotting, flow cytometry, real-time PCR). To be noted: inhibitor 10 μmol/L, 24 hours. How it is done: After washing in PBS, cells grown in 6-well culture plates were detached with 5 mmol/L EDTA in PBS and then washed with PBS once again. Blocking was conducted in 1% BSA/PBS for 60 min. at room temperature followed by incubation with the anti L1CAM antibody L1-11A or an isotype matched control antibody (1:1000, in 1% BSA/PBS) at 4° C. overnight. Then, cells were washed three times in PBS followed by incubation (60 min, 37° C.) with a goat-anti mouse antibody conjugated with Alexa flour 488 (Dianova, Hamburg, Germany) diluted 1:500 in 1% BSA/PBS. After washing in PBS, cells were resuspended in 500 μL PBS and analysed by fluorescence flow cytometry.
(§1) Cells were seeded into 6 well and 12 well plates, respectively, and transfected or treated as indicated. Then, cells were washed once with PBS and lysed with 1 volume of 2×SDS sample buffer (128 mmol/L Tris-Base, 4.6% SDS, 10% glycerol). Samples were heated for 5 minutes at 95° C. and put on ice for 2 minutes. Protein concentrations were determined using the Dc Protein assay (BioRad). Ten μg of protein adjusted to an appropriate volume of SDS sample buffer containing 0.2 mg/mL bromphenolblue (Serva, Heidelberg, Germany) and 2.5% β-mercaptoethanol (Biomol, Hamburg, Germany) were submitted to electrophoresis on a 4-20% ProGel-Tris-glycin-gel (Anamed, Darmstadt, Germany) and immunoblotting was performed as described previously (Arlt et al, 2001). For detection of L1CAM, a monoclonal antibody (clone UJ127 from Acris Antibodies) was diluted at a concentration of 0.4 μg/mL in 5% nonfat milk powder and 0.05% Tween in TBS (blotto) and incubated overnight at 4° C. For detection of the cytoplasmic domain of L1CAM, the pcytL1 antibody (Mechtersheimer et al., 2001) was used at a concentration of 1 μg/mL in blotto and incubated overnight at 4° C. As control of equal protein load, a polyclonal rabbit antibody for HSP90 (Santa Cruz, Heidelberg, Germany) was diluted 1:2000 in blotto. The mouse anti CD51 antibody from Beckman Coulter GmbH (Krefeld, Germany) was used at a concentration of 1:500 in blotto for detection of human αv integrin. Incubation with the primary antibodies was performed overnight at 4° C. For detection of the primary antibodies, anti-mouse and anti-rabbit HRP-linked antibodies (Cell Signaling), respectively, were used at a dilution of 1:2000 in blotto-TBST at room temperature for 1 hour. After washing in TBST, blots were developed using the LumiGlo peroxidase detection kit (Cell Signaling).
2 μg of total RNA were reverse-transcribed into single-stranded cDNA, as described previously (Schafer et al., 1999). Two μL of cDNA and 0.2 μmol/L gene-specific primers were adjusted with RNAse-free water to a volume of 15 μL. To this mixture, 15 μL of iQ SYBR Green Supermix (BioRad) were added. Primers for the detection of L1CAM (Gavert et al., 2005) were used under the following conditions: 95° C./1 min; 95° C./1 min, 52° C./30 see, 72° C./30 see for 40 cycles; 72° C./10 min. Primers for the detection of iNOS were from Biosource (Ratingen, Germany) and used under the following PCR conditions: 95° C./5 min; 95° C./45 sec, 60° C./45 sec, 72° C./45 sec for 40 cycles; 72° C./10 min. For control, β-actin was amplified in parallel using primers from BD Biosciences Clontech. […] Data were collected during annealing steps and were further analysed by using the i-Cycler iQ Optical system software (BioRad). All samples were analysed in duplicates and data are expressed as amount of mRNA in arbitrary units.

The test system of test [2] is ERK phosphorylation. Put plainly: ERK phosphorylation in SKOV3ip cells. The following applies: treatment with DAPT, TAPI-0. As to the method: (A) Analysis of L1-32 cleavage by γ-secretase. Cells were treated for 48 h at 37° C. with presenilin inhibitor IX (DAPT) or for control with DMSO. Isolated membranes were incubated for 2 h at 37° C. and then separated into pellet or supernatant (SN) fractions by ultracentrifugation. Lanes 1 to 2 show cells treated with DMSO (vehicle). Lanes 3 and 4 show cells preincubated with DAPT. (B) SKOV3ip cells were treated with DAPT either in the presence or absence of the metalloprotease inhibitor TAPI-0 for 24 hr. Cells were lysed in BOG lysis buffer and analyzed by Western blot analysis. The cell supernatant was analyzed for soluble L1 using mAb L1-11A and the cell lysate was examined for L1-32 using peytL1. (C) HEK293 or HEK293-hL1wt cells were treated with DMSO, DAPT, TAPI-0 or both inhibitors for 96 h. mRNA was transcribed to cDNA and analyzed by qPCR for the genes CRABPII and cathepsin B. (D) Analysis of ERK phosphorylation in SKOV3ip cells after treatment with the indicated compounds.
(A) Effect of L1-antibodies on ERK phosphorylation in SKOV3ip cells. The cells were incubated for 24 hr at 37° C. with the indicated purified antibodies to L1 (10 μg/ml) or isotype control IgG. […] Soluble L1 in the supernant and L1-32 in the cell lysate were analyzed by Western blot. (C) mRNA was isolated from antibody treated SKOV3ip cells, transcribed to cDNA and analyzed by qPCR for the indicated genes. […]

Test [3] has as its system L1CAM. Put plainly: L1CAM cleavage by western blotting in L1CAM transfected PT45-P1 cells. To be noted: inhibitor 10 μmol/L, 24 hours. As to the method: PT45-P1res cells (a,b) or PT45-P1 cells transfected with L1CAM or an empty control vector (mock) (c,d) were left untreated (w/o) or were either treated with Tapi-0, Tapi-1, GM6001 or L685,458 (each 10 μmol/L) for 24 hours. (a,c) Cellular lysates were subjected to western blotting using either the antibody clone UJ127 from Acris detecting only full-length L1CAM or the pcytL1 antibody detecting also the cytoplasmic part of L1CAM. HSP90 was detected as a control for equal protein load. (b,d) Thirty minutes after treatment with the respective inhibitor, cells were either left untreated or treated with 20 μg/mL etoposide for 24 hours. Then, cells were analysed for caspase-3/-7 activity expressed as n-fold induction of caspase-3/-7 activity of basal. Means±SD from three independent experiments are shown. * indicates p<0.05.
as §1
In general terms: Immunoblotting shows a protein as a band on a membrane.

As for `CC(C)C[C@H](CC(=O)NO)C(=O)N[C@@H](Cc1ccc2ccccc2c1)C(=O)N[C@@H](C)C(N)=O` [TAPI-0], the “L1CAM expression (full-length 220 kDa and 32 kD fragment)” value in test [1] is “neither of the inhibitors changed L1 CAM expression”. Besides, in test [2], the “ERK activation in treated cells” value is “did not interfere with ERK activation”. The “expression of full-length L1CAM and level of the 32 kD fragment” value in test [3] is listed as “did neither influence the expression of full-length L1CAM nor increased the level of the 32 kD fragment”.
